Data taken from US12493040B2, “Cancer detection method using sense of smell of nematode” (HIROTSU BIO SCIENCE INC., priority 2013, dated 2025).

System: RNAi-treated eri-1 (mg366) nematodes
Experiment: RNAi screening of olfactory receptor genes: chemotaxis assay of RNAi-treated nematodes to odorants
Format: in vivo, Caenorhabditis elegans
Conditions: low concentration of attractant
Method in brief: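 Chemotaxis of adult RNAi-fed eri-1 (mg366) nematodes (30–50 per test) was measured toward low (1 μl, 10^−3 or 10^−4 dilution) or high (1 and 5 μl neat) odorant doses. Knockdown: 4 days feeding on E. coli from Ahringer library with IPTG and ampicillin. Differences called by z score at ±1.96, weaker cutoff ±0.96.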

chemotaxis index (Control nematodes): 0.49 ± 0.020
chemotaxis index (srh-10 RNAi-treated nematodes): 0.68
chemotaxis index (srh-11 RNAi-treated nematodes): 0.75
chemotaxis index (srh-15 RNAi-treated nematodes): 0.44
chemotaxis index (srh-16 RNAi-treated nematodes): 0.95
chemotaxis index (srh-18 RNAi-treated nematodes): 0.96
chemotaxis index (srh-19 RNAi-treated nematodes): 0.64
chemotaxis index (srh-22 RNAi-treated nematodes): 0.42
chemotaxis index (srh-23 RNAi-treated nematodes): 0.48
chemotaxis index (srh-24 RNAi-treated nematodes): 0.59
chemotaxis index (srh-25 RNAi-treated nematodes): 0.95
chemotaxis index (srh-27 RNAi-treated nematodes): 0.27
chemotaxis index (srh-28 RNAi-treated nematodes): 0.22
chemotaxis index (srh-36 RNAi-treated nematodes): 0.26
chemotaxis index (srh-37 RNAi-treated nematodes): 0.60
chemotaxis index (srh-39 RNAi-treated nematodes): −0.24
chemotaxis index (srh-40 RNAi-treated nematodes): 0.47
chemotaxis index (srh-41 RNAi-treated nematodes): 0.57
chemotaxis index (srh-44 RNAi-treated nematodes): 0.52
chemotaxis index (srh-45 RNAi-treated nematodes): 0.26
chemotaxis index (srh-46 RNAi-treated nematodes): 0.03
chemotaxis index (srh-48 RNAi-treated nematodes): 0.38
chemotaxis index (srh-49 RNAi-treated nematodes): 0.60
chemotaxis index (srh-50 RNAi-treated nematodes): 0.53
chemotaxis index (srh-51 RNAi-treated nematodes): 0.63
chemotaxis index (srh-52 RNAi-treated nematodes): 0.51
chemotaxis index (srh-55 RNAi-treated nematodes): 0.49
chemotaxis index (srh-59 RNAi-treated nematodes): −0.14
chemotaxis index (srh-60 RNAi-treated nematodes): 0.22
chemotaxis index (srh-61 RNAi-treated nematodes): 0.40
chemotaxis index (srh-67 RNAi-treated nematodes): 0.41
chemotaxis index (srh-68 RNAi-treated nematodes): 0.21
chemotaxis index (srh-69 RNAi-treated nematodes): 0.13
chemotaxis index (srh-70 RNAi-treated nematodes): 0.25
chemotaxis index (srh-71 RNAi-treated nematodes): 0.14
chemotaxis index (srh-72 RNAi-treated nematodes): 0.29
chemotaxis index (srh-74 RNAi-treated nematodes): 0.42
chemotaxis index (srh-75 RNAi-treated nematodes): 0.53
chemotaxis index (srh-77 RNAi-treated nematodes): 0.32
chemotaxis index (srh-79 RNAi-treated nematodes): 0.53
chemotaxis index (srh-80 RNAi-treated nematodes): 0.41
chemotaxis index (srh-82 RNAi-treated nematodes): 0.49
chemotaxis index (srh-83 RNAi-treated nematodes): 0.72
chemotaxis index (srh-97 RNAi-treated nematodes): 0.74
chemotaxis index (srh-99 RNAi-treated nematodes): 0.54
chemotaxis index (srh-100 RNAi-treated nematodes): 0.35
chemotaxis index (srh-104 RNAi-treated nematodes): −0.30
chemotaxis index (srh-105 RNAi-treated nematodes): 0.27
chemotaxis index (srh-109 RNAi-treated nematodes): 0.65
chemotaxis index (srh-111 RNAi-treated nematodes): 0.39
chemotaxis index (srh-113 RNAi-treated nematodes): 0.14
chemotaxis index (srh-115 RNAi-treated nematodes): 0.39
chemotaxis index (srh-116 RNAi-treated nematodes): 0.22
chemotaxis index (srh-118 RNAi-treated nematodes): 0.44
chemotaxis index (srh-119 RNAi-treated nematodes): 0.18
chemotaxis index (srh-120 RNAi-treated nematodes): 0.80
chemotaxis index (srh-122 RNAi-treated nematodes): 0.24
chemotaxis index (srh-123 RNAi-treated nematodes): 0.30
chemotaxis index (srh-125 RNAi-treated nematodes): 0.08
chemotaxis index (srh-128 RNAi-treated nematodes): 0.49
chemotaxis index (srh-129 RNAi-treated nematodes): 0.15
chemotaxis index (srh-130 RNAi-treated nematodes): 0.36
chemotaxis index (srh-214 RNAi-treated nematodes): 0.88
chemotaxis index (srh-216 RNAi-treated nematodes): 0.65
chemotaxis index (srh-217 RNAi-treated nematodes): 0.92
chemotaxis index (srh-220 RNAi-treated nematodes): 0.67
chemotaxis index (srh-222 RNAi-treated nematodes): 0.46
chemotaxis index (srh-223 RNAi-treated nematodes): 0.23
chemotaxis index (srh-227 RNAi-treated nematodes): 0.60
chemotaxis index (srh-229 RNAi-treated nematodes): 0.12
chemotaxis index (srh-233 RNAi-treated nematodes): 0.33
chemotaxis index (srh-235 RNAi-treated nematodes): 0.51
chemotaxis index (srh-236 RNAi-treated nematodes): 0.37
chemotaxis index (srh-239 RNAi-treated nematodes): 0.49
chemotaxis index (srh-241 RNAi-treated nematodes): 0.63
chemotaxis index (srh-243 RNAi-treated nematodes): 0.00
chemotaxis index (srh-244 RNAi-treated nematodes): 0.19
chemotaxis index (srh-247 RNAi-treated nematodes): 0.38
chemotaxis index (srh-250 RNAi-treated nematodes): 0.58
chemotaxis index (srh-251 RNAi-treated nematodes): 0.32
chemotaxis index (srh-252 RNAi-treated nematodes): 0.65
chemotaxis index (srh-258 RNAi-treated nematodes): 0.35
chemotaxis index (srh-261 RNAi-treated nematodes): 0.27
chemotaxis index (srh-264 RNAi-treated nematodes): 0.46
chemotaxis index (srh-266 RNAi-treated nematodes): 0.00
chemotaxis index (srh-274 RNAi-treated nematodes): 0.82
chemotaxis index (srh-275 RNAi-treated nematodes): 0.57
chemotaxis index (srh-276 RNAi-treated nematodes): 0.45
chemotaxis index (srh-277 RNAi-treated nematodes): 0.83
chemotaxis index (srh-279 RNAi-treated nematodes): 0.55
chemotaxis index (srh-281 RNAi-treated nematodes): 0.64
chemotaxis index (srh-282 RNAi-treated nematodes): 0.73
chemotaxis index (srh-283 RNAi-treated nematodes): 0.15
chemotaxis index (srh-284 RNAi-treated nematodes): 0.36
chemotaxis index (srh-291 RNAi-treated nematodes): 0.48
chemotaxis index (srh-292 RNAi-treated nematodes): 0.52
chemotaxis index (srh-293 RNAi-treated nematodes): 0.00
chemotaxis index (srh-297 RNAi-treated nematodes): 0.32
chemotaxis index (srh-298 RNAi-treated nematodes): 0.68
chemotaxis index (srh-308 RNAi-treated nematodes): 0.39
Structure (SMILES): CCC(=O)C(C)=O [pentanedione]
